Reference: paper PMC7456513 (ACS infectious diseases, 2020)
Where two headings read alike, the source gives them in different places.

Tests used:
Assay in all cases: tryptophan fluorescence quenching titration
Type in all cases: binding
[1] = biological target: T1, HasAp (Pseudomonas aeruginosa, UniProt G3XD33); settings: read-out: KD (nM, ± SD)
[2] = biological target: T1, HasAp; settings: read-out: KD (nM, ± SD); remark: listed apart in the source
[3] = biological target: T1, HasAp

| SMILES | Kd [1] [nM] | further results |
| --- | --- | --- |
| C1=[N+]2c3ccccc3[N+]3=Cc4ccccc4[O][Fe-]23[O]c2ccccc21 [FeSal] | 1050 ± 100 |  |
| C=CC1=C(C)C2=[N+]3C1=Cc1c(C)c(C=C)c4[n]1[Ga-]31[n]3c(c(C)c(CCC(=O)O)c3=CC3=[N+]1C(=C4)C(C)=C3CCC(=O)O)=C2 (stereo not shown) [GaPPIX] | 280 ± 30 |  |
| C1=[N+]2c3ccccc3[N+]3=Cc4ccccc4[O][Ga-]23[O]c2ccccc21 [GaSal] |  | Kd [2]: 2050 ± 280 nM |
| C=CC1=C(C)C2=Cc3c(C=C)c(C)c4[n]3[Fe][n]3c(c(C)c(CCC(=O)O)c3=CC3=NC(=C4)C(C)=C3CCC(=O)O)=CC1=N2 [heme] |  | Kd [3]: 350 ± 50 nM |
